Test results: paper PMC5794004 (Bioorganic & medicinal chemistry, 2017)

Assays:
hCB2 receptors = hCB2 receptors (Homo sapiens, UniProt P34972); experiment: CB2 receptor radioligand binding, [3H]CP55,940, CHO-K1 hCB2 membranes; conditions: for interaction with CB2R: up to 100 μM
hCB1R = hCB1R (Homo sapiens, UniProt P21554); experiment: CB1 receptor radioligand binding, [3H]CP55,940, CHO-K1 hCB1R membranes; conditions: for increase of [3H]CP55,940 binding at CB1R: maximal increase over vehicle
MAGL = target: T1, MAGL (Homo sapiens, UniProt Q99685); experiment: MAGL activity assay, U937 cell homogenate; type: biochemical
T1 sequence (Q99685 1-303): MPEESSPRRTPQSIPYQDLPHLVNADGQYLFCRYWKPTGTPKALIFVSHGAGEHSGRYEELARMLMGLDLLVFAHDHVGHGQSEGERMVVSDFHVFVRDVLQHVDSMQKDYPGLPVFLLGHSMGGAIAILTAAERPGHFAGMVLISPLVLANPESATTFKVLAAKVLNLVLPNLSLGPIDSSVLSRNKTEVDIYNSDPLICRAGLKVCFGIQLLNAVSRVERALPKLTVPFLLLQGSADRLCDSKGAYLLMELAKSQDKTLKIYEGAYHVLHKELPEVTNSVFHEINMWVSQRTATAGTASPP

AEA uptake = AEA uptake assay, intact U937 cells; type: cell-based
[1] = acute feeding model; cited from earlier work

hCB2 receptors, sequence (P34972 whole entry): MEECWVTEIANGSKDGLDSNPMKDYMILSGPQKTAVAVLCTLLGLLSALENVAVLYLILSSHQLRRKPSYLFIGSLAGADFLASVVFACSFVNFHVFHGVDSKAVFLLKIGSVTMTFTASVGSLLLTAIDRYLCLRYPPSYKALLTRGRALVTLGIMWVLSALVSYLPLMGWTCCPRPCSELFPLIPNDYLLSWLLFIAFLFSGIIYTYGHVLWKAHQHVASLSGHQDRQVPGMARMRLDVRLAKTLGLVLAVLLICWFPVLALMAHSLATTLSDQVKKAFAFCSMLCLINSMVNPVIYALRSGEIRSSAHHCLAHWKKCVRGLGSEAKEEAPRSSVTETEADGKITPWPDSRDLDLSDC
hCB1R, sequence (P21554 whole entry): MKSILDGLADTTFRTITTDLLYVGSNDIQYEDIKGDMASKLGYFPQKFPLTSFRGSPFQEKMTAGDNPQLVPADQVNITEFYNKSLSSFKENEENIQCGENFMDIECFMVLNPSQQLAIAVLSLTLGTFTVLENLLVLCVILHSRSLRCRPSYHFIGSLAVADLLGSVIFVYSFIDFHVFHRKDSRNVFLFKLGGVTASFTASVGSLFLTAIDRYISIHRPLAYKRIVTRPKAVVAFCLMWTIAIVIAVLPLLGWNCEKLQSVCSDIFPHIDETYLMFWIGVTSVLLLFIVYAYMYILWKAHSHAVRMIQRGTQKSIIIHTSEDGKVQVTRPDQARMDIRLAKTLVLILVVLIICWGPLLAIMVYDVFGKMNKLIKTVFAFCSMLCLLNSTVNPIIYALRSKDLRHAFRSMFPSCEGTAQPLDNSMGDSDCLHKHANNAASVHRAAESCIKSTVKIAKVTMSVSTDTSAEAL

O=C(Nc1ccc(Cl)cc1)Nc1cccc(Nc2cccc(N3CCCC3)c2)c1 [FG45a, 1-(4-Chlorophenyl)-3-(3-{[3-(pyrrolidin-1-yl)phenyl]amino}phenyl)urea]
interaction with CB2R (hCB2 receptors): did not significantly interact

O=C(Cc1ccc(Cl)cc1)Nc1cccc(-c2cccc(N3CCCC3)c2)c1 [SC33, 2-(4-Chlorophenyl)-N-[3′-(pyrrolidin-1-yl)biphenyl-3-yl]acetamide]
Ki (hCB2 receptors): ~50 µM
binding to CB1R (hCB1R; at 100 μM): approx. 10%
influence on [3H]CP55,940 binding to CB1R (hCB1R; up to 10 μM): does not influence

O=C(Nc1ccc(Cl)cc1)Nc1cccc(Nc2cccc(N3CCCC3)n2)c1 [SN15b]
interaction with CB2R (hCB2 receptors): did not significantly interact

O=C(Nc1ccc(Cl)cc1)Nc1cccc(-c2cccc(N3CCCC3)c2)c1 [SC4a, 1-(4-Chlorophenyl)-3-[3′-(pyrrolidin-1-yl)biphenyl-3-yl]urea]
increase of [3H]CP55,940 binding at CB1R (hCB1R): 15–20%

O=C(Nc1ccc(Cl)cc1)Nc1cccc(-c2cccc(N3CCCC3)n2)c1 [PSNCBAM-1, 1-(4-Chlorophenyl)-3-{3-[6-(pyrrolidin-1-yl)pyridin-2-yl]phenyl}urea]
binding to CB2R (hCB2 receptors; up to 10 μM): did not show any significant binding
MAGL result in words (MAGL): negative
AEA cell uptake result in words (AEA uptake): negative
food intake and body weight [1]: decrease food intake and body weight
increase of [3H]CP55,940 binding at CB1R (hCB1R): 15–20%
